Our source for the melting point values is a melting point compilation (Tetko et al.; mined from patent text by program, amines drawn as free bases though some values may be those of a salt).

A value given as a limit tells only on which side of the number the result lay.

In the case of `CCCC12CCC(=O)C=C1c1c(cc(OC)c(Cl)c1Cl)C2O` (stereo not given), the melting point fell in the range of 173 to 175 °C.

Molecule `CCOC(=O)CN1C(=O)CN2CC(=O)NN=C21` came in with a melting point of 188 to 193 °C.

As to `CCn1c(=O)c(C(=O)O)c(O)c2ccc(C)nc21`, the melting point is 162 to 165 °C.

With `COc1cc(N)c(Cl)cc1C(=O)NCC1CCN(CCCCCC(=O)c2cc3ccccc3s2)CC1`, the melting point is 157 to 159 °C.

Turning to `CCOC(=O)c1c(-c2ccc(OC)c(OC)c2)c2cc(OC)c(OC)cc2[nH]c1=O`, the melting point lay in the range of 273 to 276 °C.

In the case of `CC(C)(C)N[C@H](Cc1ccccc1)C(=O)O`, the melting point lay within 79 to 80 °C.

`COCc1cc(CCCOc2c(Cl)cc(-c3noc(C)n3)cc2Cl)on1`: the melting point lay within 55.5 to 56 °C.

Regarding `O=C1c2ccccc2C(=O)N1CCN1CCCC1c1cccc(O)c1` (stereo not given), the melting point lay within 172 to 175 °C.

In turn, `CC(=O)CSc1ncc(C)n1C` registered a melting point of 65 to 67 °C.

On to `O=[N+]([O-])c1ccc(OCc2ccccc2)c(CO)c1`, for which the melting point fell in the range of 81 to 83 °C.

Turning to `O=C1OC(CCO)C(O)=C1OCc1ccccc1` (stereo not given), the melting point was 98 to 99 °C.

`O=C(O)CCc1cc2cc(Cl)ccc2n1S(=O)(=O)c1cccc(C(F)(F)F)c1` gave a melting point of 203 to 206 °C.

`C=C(C)C(=O)Oc1ccc(NS(C)(=O)=O)c(C)c1` showed a melting point of 95 to 97 °C.

The molecule `CCOC(=O)CCCCCCOc1ccc(OCc2ccccc2)cc1` gave a melting point of 57 to 61 °C.

Turning to `CN(C)C(C#N)C1(c2ccc(Cl)cc2)CCC1` (stereo not given), the melting point is 90 to 91 °C.

As to `COC(=O)CN1C(=O)c2ccc(F)cc2S1(=O)=O`, the melting point was found to be 86 °C.

In turn, `O=C(NC/C=C\COc1cc(CN2CCCC2)ccn1)c1cn[nH]c1` displayed a melting point of 57 to 61 °C.

`CCn1cccc1C(N)=S` came in with a melting point of 71.5 to 74.5 °C.

As for `CC1(C)CN2C(=NS(=O)C2=Nc2ccc(Cl)cc2)S1` (stereo not given), the melting point lay in the range of 121 to 124 °C.

The molecule `CC(C)(C)CC(C)(C)n1scc(Cl)c1=O` registered a melting point of 137 to 140 °C.

In turn, `O=C(Nc1cccc(S(=O)(=O)N2CCCC2)c1)c1cnn2c(C(F)F)cc(-c3ccc(Cl)c(Cl)c3)nc12` registered a melting point of 245 °C.

Molecule `OC(CNC(c1ccccc1)C(O)c1ccccc1)CNC(c1ccccc1)C(O)c1ccccc1` (stereo not given) showed a melting point of 155 to 175 °C.

For the molecule `CCNc1nc(Nc2ccccc2)ncc1CCC(=O)OCC`, the melting point lay within 106 to 107 °C.

Consider `NCc1cccc(C2CCN(c3nc4c(cc3F)c(=O)c(C(=O)O)cn4C3CC3)C2)c1` (stereo not given), for which the melting point fell in the range of 274 to 276 °C.

Turning to `Cc1cc(Cl)c(C(=O)c2cc(C)c(C)cc2Cl)cc1C`, the melting point fell in the range of 148 to 149 °C.

`COc1ccc(C2C(C#N)=C(N)Oc3c2ccc2cnccc32)cc1OC` (stereo not given) showed a melting point of 215 to 218 °C.

Consider `CC(C)[Si]1(C(C)C)C([Si](C)(C)C)=C(c2ccccc2)C(c2ccccc2)=C1[Si](C)(C)C`, for which the melting point was 107 °C.

As for `Cc1cc(N)c(OCc2ccccc2)c(Cl)c1C`, the melting point was 57 to 58 °C.

Turning to `CSc1ccc(C(=N)Nc2ccc(F)cc2)cc1`, the melting point was in the range of 145 to 147 °C.

The molecule `COc1ncc(Oc2ccc(Cl)cc2)c2cc(C(N)=O)sc12` yielded a melting point above 250 °C.

In turn, `O=C(OCCN1CCN(c2cccc(C(F)(F)F)c2)CC1)c1cc(F)ccc1Nc1ccnc2cc(Cl)ccc12` showed a melting point of 113 °C.

Molecule `c1ccc(-c2nnc(-c3ccc(CN4CCCCCC4)s3)o2)cc1` yielded a melting point of 95 to 97 °C.

`N#CC1=C(c2ccccc2)Nc2n[nH]cc2C1c1ccccc1C#N` (stereo not given) yielded a melting point of 148 °C.

As for `CN(C)Cc1ccc(CSCCNc2ncc(Cc3ccn(Cc4ccccc4)c(=O)c3)c(=O)[nH]2)o1`, the melting point fell in the range of 95.5 to 98 °C.

`COc1cccnc1C(O)c1ccc(NC(=O)C2=Cc3cc(-c4ccc(C)cc4)ccc3OCC2)cc1` (stereo not given) registered a melting point of 232 to 233 °C.

In turn, `COc1ccc(-n2nc(C(=O)NC(C)(C)C)c3c2C2CCC3C2)cc1` (stereo not given) returned a melting point of 145 to 147 °C.

`O=C(O)c1c(-c2ccccc2)c2cc(OCc3ccccc3)ccc2n1Cc1cc2c(cc1Cl)OCO2` registered a melting point of 213 to 214 °C.

As to `CN1CCc2c([nH]c(Br)c2Br)C(c2ccccc2)C1` (stereo not given), the melting point is 136 to 137 °C.

For the molecule `Cc1ccc2[nH]ncc2c1NCCN`, the melting point was 153 to 155 °C.

The molecule `C[Si](C)(C)c1ccc2c(c1)Cc1cc([Si](C)(C)C)ccc1-2` registered a melting point of 117 to 118 °C.

Molecule `O=C1C2=CSCCN2C(=O)N1c1ccc(Cl)cc1` displayed a melting point of 155 to 158 °C.

Turning to `Cc1c(Nc2ncccc2C(=O)O)cccc1C(F)F`, the melting point is 232 to 234 °C.

In turn, `Cc1nc(N(C)C=O)sc1C(=O)CBr` displayed a melting point of 80 to 82 °C.

Molecule `CC(=O)NC1(c2ccc(CN3CCN(c4ccc(F)cc4)CC3)cc2)CC1` displayed a melting point of 124 to 126 °C.

Turning to `CCC(=O)OC(C)(CC)c1nc2c(C(F)(F)F)cccc2c(O)c1C(=O)Nc1ccccn1` (stereo not given), the melting point is 192 °C.

As to `COc1nc(NC(=O)NS(=O)(=O)c2ccccc2C(=O)OC(C)C)nc(C(F)(F)F)n1`, the melting point lay in the range of 182 to 185 °C.

For the molecule `CC(C)(C)C(=O)OCOC(=O)Cc1ccc(O)cc1`, the melting point was in the range of 159 to 161 °C.

For `CCCO[C@@H]1C[C@@H](C(=O)NC)N(S(=O)(=O)c2ccc(Cl)c(CBr)c2Cl)C1`, the melting point came out at 62 °C.

Molecule `COc1ccc2sc(C(N)=O)c(SCc3ccccc3)c2c1` had a melting point of 151 to 153 °C.

`Cc1cc(COC2CCCO2)nc(N)n1` (stereo not given): the melting point fell in the range of 109 to 110 °C.

In turn, `N#Cc1cc(=O)n2nc(S(=O)(=O)Cc3ccccc3)sc2n1` gave a melting point of 214 to 217 °C.

Regarding `O=C(O)C1C=CCn2c(=O)n(CCCl)c(=O)n21` (stereo not given), the melting point lay in the range of 150 to 151 °C.

Consider `CCCCc1c(Cc2ccc(-c3ccccc3C(=O)O)cc2)c(=O)nc2n1CC(=O)N2`, for which the melting point is 220 to 222 °C.

`O=C(Nc1cc(OC2CCCC2)c(Cl)cc1F)C1=C(C(=O)NC2CCCCC2)CCCC1` displayed a melting point of 209 to 211 °C.

As for `CN(c1cc(OCC(=O)O)cc2cc(C3=NCC(CN4CCSCC4)S3)[nH]c12)S(=O)(=O)c1ccccn1` (stereo not given), the melting point was 132 to 134 °C.

In the case of `CC(C)(C)OC(=O)Cc1n[nH]c2c(=O)[nH]c3cc(Cl)ccc3c(=O)c12`, the melting point was 226 to 229 °C.

The molecule `CCCCCCCCCCCCCCCCn1c2cc(Br)ccc2c2ccc(Br)cc21` displayed a melting point of 85 to 86 °C.

In the case of `CC(=O)NC[C@H]1CN(c2ccc(N3CCC(=C(C)C#N)CC3)c(F)c2)C(=O)O1`, the melting point lay within 181 to 182 °C.

As to `COc1cc(Cc2cnc(CCCOc3cccc(CN4CCCCC4)c3)[nH]c2=O)ccn1`, the melting point lay in the range of 93 to 94 °C.

The molecule `COc1ccc2c(c1)C=C(C(=O)NCCCCN1CCN(c3ccccc3OC)CC1)CO2` had a melting point of 165 °C.

Regarding `COc1ccc2nc(COc3ccc(CC(C)C(N)=S)cc3)n(C)c2c1` (stereo not given), the melting point is 204 to 206 °C.

For `CCOC(=O)c1cc([N+](=O)[O-])c(Cl)c(S(N)(=O)=O)c1`, the melting point is 154 °C.

`C=C1Oc2cc(OS(=O)(=O)C(F)(F)F)ccc2C(=O)C1c1ccccc1` (stereo not given) showed a melting point of 133 to 135 °C.

Consider `COc1ccnc(CSc2nc3c(C(F)(F)F)cccc3[nH]2)c1`, for which the melting point is 146 °C.

The molecule `COC(=O)c1cccc(S(=O)(=O)N2CCC(N3N=C(c4ccc(OC)c(OC)c4)C(C)(C)C3=O)CC2)c1` showed a melting point of 214 °C.

For the molecule `CCOC(=O)c1cc(-c2csc(N)n2)[nH]n1`, the melting point fell in the range of 205 to 207 °C.

In the case of `COc1ccc2cnc3c(c2c1)NC(=O)CC3`, the melting point is 254 to 256 °C.

As for `O=C1CCC2C3Cc4ccc(O)cc4C2(CCN3CC2CC2)C1` (stereo not given), the melting point lay within 125 to 127 °C.

The molecule `O=Cc1ccc(OCCN2CCN(c3cc(Cl)nnc3Cl)CC2)cc1` displayed a melting point of 110 to 112 °C.

In the case of `O=C(Oc1ccccc1)N1CCN(c2nn(S(=O)(=O)c3ccccc3)c3ccccc23)CC1`, the melting point was 112 to 114 °C.

For the molecule `COc1cc(Cl)cc2c1OC(COS(=O)(=O)c1ccc(C)cc1)C2` (stereo not given), the melting point lay in the range of 99 to 102 °C.

With `Cc1nc(O)sc1CCCl`, the melting point lay within 151 to 152 °C.

The molecule `NC(=O)NC(=O)c1nc(Cl)c(Cl)[nH]1` yielded a melting point above 290 °C.

`CN(C)c1ccc(NC(=S)NCC(C)(C)C)cc1` gave a melting point of 174 to 176 °C.

As to `FC(F)(F)c1cccc(OCc2ccc3ccccc3n2)c1`, the melting point lay in the range of 77 to 78 °C.

Regarding `CC(C)n1nc(-c2cnc(N)nc2-c2ccc(Cl)cc2)ccc1=O`, the melting point was 195 °C.

The molecule `O=c1oc2c(c(O)c1C(c1ccccc1)C1CC1)CCCCCCCCCC2` (stereo not given) yielded a melting point of 97.8 to 99 °C.

As for `CN(C)C1CCc2[nH]c3ccc(CO)cc3c2C1` (stereo not given), the melting point fell in the range of 195 to 197 °C.

`CC(=O)c1ccc(Oc2ccc(I)cc2)cc1` returned a melting point of 99 to 101 °C.

The molecule `Cc1sc2nc(SCCCN3CCN(c4nc5ccccc5s4)CC3)n(N)c(=O)c2c1C` displayed a melting point of 200 to 201 °C.

For `COc1cccc2cc3c(c(-c4ccc5c(c4)OCO5)c12)C(=O)NC3=O`, the melting point lay within 291 to 293 °C.

Regarding `Cc1cc(C)c2cccc(OCc3c(Cl)ccc(S(=O)(=O)N4CCC[C@H]4C(=O)N4CCN(C(=O)c5cccc(C(N)=NO)c5)CC4)c3Cl)c2n1`, the melting point worked out at 160 °C.

`NCCOC(c1ccccc1)(c1ccccc1)c1ccccc1` displayed a melting point of 87 to 89 °C.

Regarding `CC(C)(N)c1ccc(-c2nc(Nc3cccc(CCN4CCOCC4)c3)ncc2C#N)cc1`, the melting point lay in the range of 166 to 167 °C.

For `NC(c1ccc(Cl)cc1Cl)P(O)O` (stereo not given), the melting point was found to be 244 °C.

The molecule `O=CN(N=Cc1cccnc1)c1ccccc1` came in with a melting point of 129 to 132 °C.

Turning to `CN(C)S(=O)(=O)n1cc(S(=O)(=O)N2CCc3ccccc3C2)nc1C#N`, the melting point lay in the range of 143 to 144 °C.

Regarding `Cn1cc(-c2ccc(C(F)(F)F)cc2)c(=O)c(-c2cccc(Cl)c2)c1`, the melting point fell in the range of 147 to 151 °C.

Molecule `O=C(CCc1ccc(S(=O)(=O)N(C(=O)c2c3ccccc3nc3ccccc23)c2ccc3c(c2)OCCO3)cc1)ON1C(=O)CCC1=O` displayed a melting point of 140 °C.

Regarding `C[C@@H]1CN(Cc2ccccc2)C[C@H]1N` (relative stereo), the melting point lay in the range of 74 to 80 °C.

The term melting point denotes the temperature, or range, at which the solid turns liquid.
